In ChEMBL document CHEMBL1909046, “DrugMatrix in vitro pharmacology data”:

What was measured:
[1] = target: T1, Alpha-2A adrenergic receptor (Homo sapiens, UniProt P08913); type: cell membranes, Sf9, Membrane; details: for Ki: read-out: Ki; for all read-outs here: in other assays of this panel Not Active means under 50% inhibition at 10 µM
T1 sequence (P08913 whole entry): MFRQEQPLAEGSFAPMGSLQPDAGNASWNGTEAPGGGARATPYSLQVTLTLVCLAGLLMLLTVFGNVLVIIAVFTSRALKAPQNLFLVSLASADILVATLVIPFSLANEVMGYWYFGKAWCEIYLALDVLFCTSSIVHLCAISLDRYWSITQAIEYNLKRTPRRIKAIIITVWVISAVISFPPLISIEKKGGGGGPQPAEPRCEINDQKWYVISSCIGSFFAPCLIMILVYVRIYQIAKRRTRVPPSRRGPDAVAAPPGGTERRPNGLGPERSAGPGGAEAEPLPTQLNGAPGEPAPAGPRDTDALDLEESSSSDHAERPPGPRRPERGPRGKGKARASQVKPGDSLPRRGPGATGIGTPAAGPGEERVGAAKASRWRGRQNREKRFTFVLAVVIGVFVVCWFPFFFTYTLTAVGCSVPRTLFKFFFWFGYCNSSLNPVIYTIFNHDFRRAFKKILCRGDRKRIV

[2] = DRUGMATRIX: beta-Lactamase enzyme inhibition (substrate: Nitrocefin); parameters: species or system Bacillus cereus; details: Not Active = under 50% inhibition at 10 µM
[3] = DRUGMATRIX: Calcium Channel Type L, Benzothiazepine radioligand binding (ligand: [3H] Diltiazem); type: cell membranes, Rattus norvegicus, Wistar, Brain, Membrane; details: Not Active = under 50% inhibition at 10 µM
[4] = target: T2, Cholecystokinin receptor type A (Homo sapiens, UniProt P32238); type: cell membranes, Membrane; details: 1321-n1; note: in other assays of this panel Not Active means under 50% inhibition at 10 µM
T2 sequence (P32238 whole entry): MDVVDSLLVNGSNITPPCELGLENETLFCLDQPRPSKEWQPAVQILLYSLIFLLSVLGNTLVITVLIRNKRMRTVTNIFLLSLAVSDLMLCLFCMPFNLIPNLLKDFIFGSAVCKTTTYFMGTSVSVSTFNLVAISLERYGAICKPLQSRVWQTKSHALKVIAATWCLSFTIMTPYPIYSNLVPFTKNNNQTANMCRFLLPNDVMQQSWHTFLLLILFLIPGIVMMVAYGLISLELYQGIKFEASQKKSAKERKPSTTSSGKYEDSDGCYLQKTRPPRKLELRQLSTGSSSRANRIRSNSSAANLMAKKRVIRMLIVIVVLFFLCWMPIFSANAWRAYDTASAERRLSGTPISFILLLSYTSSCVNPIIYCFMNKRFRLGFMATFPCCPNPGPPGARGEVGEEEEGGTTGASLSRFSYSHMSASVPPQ

[5] = target: Matrix metalloproteinase-9 (Homo sapiens, UniProt P14780); test: biochemical; type: cell-based;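 note: inhibition of isolated MMP-9 enzyme activity toward a synthetic peptide substrate, from the DrugMatrix protease screening panel; in other assays of this panel Not Active means under 50% inhibition at 10 µM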
Sequence of Matrix metalloproteinase-9 (P14780 whole entry): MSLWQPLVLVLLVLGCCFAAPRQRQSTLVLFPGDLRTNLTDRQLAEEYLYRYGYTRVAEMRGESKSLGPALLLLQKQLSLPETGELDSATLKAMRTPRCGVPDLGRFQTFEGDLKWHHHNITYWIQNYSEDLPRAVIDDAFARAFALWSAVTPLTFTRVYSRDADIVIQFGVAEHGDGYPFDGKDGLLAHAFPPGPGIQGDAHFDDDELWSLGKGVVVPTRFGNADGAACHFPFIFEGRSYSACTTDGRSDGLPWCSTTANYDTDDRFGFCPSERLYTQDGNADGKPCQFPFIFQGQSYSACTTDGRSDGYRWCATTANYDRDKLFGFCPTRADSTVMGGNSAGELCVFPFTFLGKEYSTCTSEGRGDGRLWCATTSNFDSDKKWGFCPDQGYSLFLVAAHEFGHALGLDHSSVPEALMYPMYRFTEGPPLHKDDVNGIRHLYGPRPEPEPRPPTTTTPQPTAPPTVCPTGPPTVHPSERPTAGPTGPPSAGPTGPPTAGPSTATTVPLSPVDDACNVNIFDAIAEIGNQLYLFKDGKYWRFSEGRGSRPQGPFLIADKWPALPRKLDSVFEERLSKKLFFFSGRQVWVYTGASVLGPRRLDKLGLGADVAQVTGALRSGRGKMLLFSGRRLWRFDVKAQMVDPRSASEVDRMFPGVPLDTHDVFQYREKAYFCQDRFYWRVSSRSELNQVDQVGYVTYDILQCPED

Estrogen receptor = target: T3, Estrogen receptor (Homo sapiens, UniProt P03372); details: sf9; note: in other assays of this panel Not Active means under 50% inhibition at 10 µM
T3 sequence (P03372 whole entry): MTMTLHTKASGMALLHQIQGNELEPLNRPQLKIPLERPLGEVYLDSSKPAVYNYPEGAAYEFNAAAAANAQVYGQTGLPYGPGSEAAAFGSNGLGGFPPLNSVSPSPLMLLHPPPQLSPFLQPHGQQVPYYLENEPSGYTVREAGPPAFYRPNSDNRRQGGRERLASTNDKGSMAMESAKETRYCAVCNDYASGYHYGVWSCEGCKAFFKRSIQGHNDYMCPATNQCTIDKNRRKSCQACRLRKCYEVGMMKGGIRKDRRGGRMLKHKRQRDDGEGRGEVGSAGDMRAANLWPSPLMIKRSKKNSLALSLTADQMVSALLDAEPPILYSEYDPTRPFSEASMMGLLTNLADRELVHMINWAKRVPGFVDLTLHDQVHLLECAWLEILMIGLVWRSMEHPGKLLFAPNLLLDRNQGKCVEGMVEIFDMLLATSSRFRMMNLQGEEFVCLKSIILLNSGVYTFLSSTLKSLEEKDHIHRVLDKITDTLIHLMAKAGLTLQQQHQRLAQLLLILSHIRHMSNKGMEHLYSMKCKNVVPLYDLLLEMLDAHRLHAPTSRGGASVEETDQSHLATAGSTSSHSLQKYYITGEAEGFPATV

Cc1c(C)c2c(c(C)c1O)CCC(C)(CN1CCN(c3cc(N4CCCC4)nc(N4CCCC4)n3)CC1)O2 (configuration not stated)
1650 nM: IC50 ([3]; read-out: IC50)
Not Active: IC50 ([1]; sf9) | IC50 [2] | Ki [2] | IC50 [4] | IC50 [5] | IC50 (Estrogen receptor)
1470 nM: Ki ([3]; read-out: Ki)

COc1ccc(CCN(C)CCCC(C#N)(c2ccc(OC)c(OC)c2)C(C)C)cc1OC (configuration not stated)
12 nM: Ki ([3]; read-out: Ki)
14 nM: IC50 ([3]; read-out: IC50)
Not Active: IC50 [2] | Ki [2] | IC50 [4] | IC50 [5] | IC50 (Estrogen receptor)

CC(C)Cc1ccc([C@@H](C)C(=O)O)cc1 [(R)-IBUPROPHEN]
Not Active: IC50 ([1]; sf9) | IC50 [2] | Ki [2] | IC50 [3] | Ki [3] | IC50 [4] | IC50 [5] | IC50 (Estrogen receptor)

CN(C)CCOC(c1ccccc1)c1ccccc1 [DIPHENHYDRAMINE]
Not Active: IC50 ([1]; sf9) | IC50 [4] | IC50 [5] | IC50 (Estrogen receptor)

Clc1ccc(COC(Cn2ccnc2)c2ccc(Cl)cc2Cl)cc1 (configuration not stated) [ECONAZOLE]
Not Active: IC50 [4] | IC50 (Estrogen receptor)
7000 nM: IC50 ([5]; read-out: IC50)

CCN(CC)CCOc1ccc(/C(=C(/Cl)c2ccccc2)c2ccccc2)cc1 [ENCLOMIPHENE]
Not Active: IC50 [4] | IC50 [5]

Fc1ccc(C(c2ccc(F)cc2)N2CCN(C/C=C/c3ccccc3)CC2)cc1 [FLUNARIZINE]
218 nM: Ki [1]
581 nM: IC50 ([1]; read-out: IC50)
Not Active: IC50 [4] | IC50 [5] | IC50 (Estrogen receptor)

CNCCC(Oc1ccc(C(F)(F)F)cc1)c1ccccc1 (configuration not stated) [FLUOXETINE]
Not Active: IC50 ([1]; sf9) | IC50 [4] | IC50 [5]

Cc1ccc(NC(=O)c2ccc(CN3CCN(C)CC3)cc2)cc1Nc1nccc(-c2cccnc2)n1 [IMATINIB]
Not Active: IC50 ([1]; sf9) | IC50 [4] | IC50 [5] | IC50 (Estrogen receptor)

CC(C)Oc1ccc2c(=O)c(-c3ccccc3)coc2c1 [IPRIFLAVONE]
Not Active: IC50 ([1]; sf9) | IC50 [2] | Ki [2] | IC50 [3] | Ki [3] | IC50 [4] | IC50 [5]

CC(C)NCC(O)c1ccc(O)c(O)c1 (configuration not stated) [ISOPROTERENOL]
Not Active: IC50 ([1]; sf9) | IC50 [2] | Ki [2] | IC50 [3] | Ki [3] | IC50 [4] | IC50 [5]

CNC1(c2ccccc2Cl)CCCCC1=O (configuration not stated) [KETAMINE]
Not Active: IC50 ([1]; sf9) | IC50 [2] | Ki [2] | IC50 [3] | Ki [3] | IC50 [4] | IC50 [5] | IC50 (Estrogen receptor)

N#Cc1ccc(C(c2ccc(C#N)cc2)n2cncn2)cc1 [LETROZOLE]
Not Active: IC50 ([1]; sf9) | IC50 [2] | Ki [2] | IC50 [3] | Ki [3] | IC50 [4] | IC50 [5] | IC50 (Estrogen receptor)

CCN1CCC[C@H]1CNC(=O)c1cc(S(N)(=O)=O)ccc1OC [LEVOSULPIRIDE]
Not Active: IC50 ([1]; sf9) | IC50 [2] | Ki [2] | IC50 [3] | Ki [3] | IC50 [4] | IC50 [5]

CCN(CC)CC(=O)Nc1c(C)cccc1C [LIDOCAINE]
Not Active: IC50 ([1]; sf9) | IC50 [2] | Ki [2] | IC50 [3] | Ki [3] | IC50 [4] | IC50 [5]

O=C1Nc2ccc(Cl)cc2C(c2ccccc2Cl)=NC1O (configuration not stated) [LORAZEPAM]
Not Active: IC50 ([1]; sf9) | IC50 [2] | Ki [2] | IC50 [3] | Ki [3] | IC50 [4] | IC50 [5] | IC50 (Estrogen receptor)

CO[C@@H]1[C@@H](OC)[C@H](C)[C@@](O)(CC(=O)O)O[C@H]1[C@H](C)[C@H]1O[C@@]2(CC[C@@](C)([C@H]3CC[C@@](C)([C@@H]4O[C@@H]([C@H]5O[C@](C)(O)[C@H](C)C[C@@H]5C)C[C@@H]4O[C@@H]4C[C@H](OC)[C@@H](OC)[C@H](C)O4)O3)O2)C[C@H](O)[C@H]1C [MADURAMICIN ACID]
180 nM: IC50 ([1]; read-out: IC50)
67 nM: Ki [1]
Not Active: IC50 [2] | Ki [2] | IC50 [3] | Ki [3] | IC50 [4] | IC50 [5] | IC50 (Estrogen receptor)

COc1c2occc2cc2ccc(=O)oc12 [METHOXSALEN]
Not Active: IC50 ([1]; sf9) | IC50 [2] | Ki [2] | IC50 [3] | Ki [3] | IC50 [4] | IC50 [5]

C[C@H]1C[C@@H]2[C@H]([C@@H](O)C[C@@]3(C)[C@H]2CC[C@]3(O)C(=O)CO)[C@@]2(C)C=CC(=O)C=C12 [METHYLPREDNISOLONE]
Not Active: IC50 ([1]; sf9) | IC50 [2] | Ki [2] | IC50 [3] | Ki [3] | IC50 [4] | IC50 [5]

Cc1cccc(C)c1OCC(C)N (configuration not stated) [MEXILETINE]
Not Active: IC50 ([1]; sf9) | IC50 [2] | Ki [2] | IC50 [3] | Ki [3] | IC50 [4] | IC50 [5] | IC50 (Estrogen receptor)

CC[C@@H](C(=O)[C@@H](C)[C@@H](O)[C@H](C)[C@@H]1O[C@@H]([C@@H](CC)C(=O)O)CC[C@@H]1C)[C@H]1O[C@]2(C=C[C@@H](O)[C@]3(CC[C@@](C)([C@H]4CC[C@](O)(CC)[C@H](C)O4)O3)O2)[C@H](C)C[C@@H]1C [SALINOMYCIN]
Not Active: IC50 ([1]; sf9) | IC50 [2] | Ki [2] | IC50 [3] | Ki [3] | IC50 [4] | IC50 [5]

O=C(O)c1cn(-c2ccc(F)cc2)c2cc(N3CCNCC3)c(F)cc2c1=O [SARAFLOXACIN]
Not Active: IC50 ([1]; sf9) | IC50 [2] | Ki [2] | IC50 [3] | Ki [3] | IC50 [4] | IC50 [5]

CN[C@H]1CC[C@@H](c2ccc(Cl)c(Cl)c2)c2ccccc21 [SERTRALINE]
Not Active: IC50 [4] | IC50 [5] | IC50 (Estrogen receptor)

CC(C)NCC(O)c1ccc(NS(C)(=O)=O)cc1 (configuration not stated) [SOTALOL]
Not Active: IC50 ([1]; sf9) | IC50 [2] | Ki [2] | IC50 [3] | Ki [3] | IC50 [4] | IC50 [5]

O.O.O.O.O.O.[Cl-].[Cl-].[Sr+2] [STRONTIUM CHLORIDE HEXAHYDRATE]
Not Active: IC50 ([1]; sf9) | IC50 [2] | Ki [2] | IC50 [3] | Ki [3] | IC50 [4] | IC50 [5]

CN(C/C=C/C#CC(C)(C)C)Cc1cccc2ccccc12 [TERBINAFINE]
Not Active: IC50 [2] | Ki [2] | IC50 [3] | Ki [3] | IC50 [4] | IC50 [5]
2140 nM: Ki [1]
5700 nM: IC50 ([1]; read-out: IC50)

CCCCNc1ccc(C(=O)OCCN(C)C)cc1 [TETRACAINE]
Not Active: IC50 ([1]; sf9) | IC50 [2] | Ki [2] | IC50 [3] | Ki [3] | IC50 [4] | IC50 [5]

Cn1c(=O)c2nc[nH]c2n(C)c1=O.O [THEOPHYLLINE]
Not Active: IC50 ([1]; sf9) | IC50 [2] | Ki [2] | IC50 [3] | Ki [3] | IC50 [4] | IC50 [5]

Clc1ccccc1CN1CCc2sccc2C1 [TICLOPIDINE]
Not Active: IC50 [2] | Ki [2] | IC50 [3] | Ki [3] | IC50 [4] | IC50 [5] | IC50 (Estrogen receptor)
